In US11066414B2, “Cot modulators and methods of use thereof” (Gilead Sciences, Inc., priority 2015, dated 2021):
Like-named read-outs stand apart in the source and are kept apart here.

Legend:
TNFα = test: Cot Monocyte TNFα Cell Based Assay
Human Cot = Human Cot (Homo sapiens (Human), UniProt P41279); test: High Throughput Cot Biochemical Assay
[1] = Homo sapiens, Monocyte, read-out: EC50 TNF, LPS-stimulated human monocytes, TNFα
[2] = IC50 HTRF, Cot HTRF (TR-FRET) biochemical assay
[3] = Homo sapiens, Monocyte, read-out: EC50 TNF, LPS-stimulated human monocytes, TNFα TR-FRET
[4] = IC50 HTRF, Cot HTRF (TR-FRET KinEASE) biochemical assay, 400 μM ATP
[5] = read-out: EC50 TNF, LPS-stimulated human monocytes, TNFα
[6] = read-out: IC50 HTRF, Cot HTRF (TR-FRET) biochemical assay

Sequence of Human Cot (P41279 30-397): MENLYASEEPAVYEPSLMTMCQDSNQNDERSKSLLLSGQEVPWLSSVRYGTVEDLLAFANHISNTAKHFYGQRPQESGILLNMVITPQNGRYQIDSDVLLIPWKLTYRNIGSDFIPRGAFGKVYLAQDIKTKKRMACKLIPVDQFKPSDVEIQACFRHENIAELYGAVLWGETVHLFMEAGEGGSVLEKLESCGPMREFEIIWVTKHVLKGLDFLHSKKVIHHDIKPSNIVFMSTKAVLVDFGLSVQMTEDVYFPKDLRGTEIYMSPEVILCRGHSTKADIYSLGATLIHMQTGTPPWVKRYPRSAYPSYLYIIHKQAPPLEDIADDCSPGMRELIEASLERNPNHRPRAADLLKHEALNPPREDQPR

Compound | EC50 (TNFα; [1]) | IC50 (Human Cot; [2]) | also measured
[2H][C@](Nc1cc(Cl)c2ncc(C#N)c(NCC(C)(C)C)c2c1)(c1cccnc1)c1cn(C2CC2)nn1 [Example 141, (S)-8-chloro-6-(((1-cyclopropyl-1H-1,2,3-triazol-4-yl)(pyridin-3-yl)methyl-d)amino)-4-(neopentylamino)quinoline-3-carbonitrile] | 121 nM | 2 nM | –
[2H][C@](Nc1cc(Cl)c2ncc(C#N)c(NCC(C)(C)C)c2c1)(c1cccnc1)c1cn(-c2cccnc2)nn1 [Example 138, (S)-8-chloro-4-(neopentylamino)-6-((pyridin-3-yl(1-(pyridin-3-yl)-1H-1,2,3-triazol-4-yl)methyl-d)amino)quinoline-3-carbonitrile] | 141 nM | 3 nM | –
CC(C)(CNc1c(C#N)cnc2c(C#N)cc(N[C@H](c3cn(C4(C5CC5)CC4)nn3)c3cccc4ncccc34)cc12)C(F)(F)F [Example 896, (S)-6-(((1-([1,1′-bi(cyclopropan)]-1-yl)-1H-1,2,3-triazol-4-yl)(quinolin-5-yl)methyl)amino)-4-((3,3,3-trifluoro-2,2-dimethylpropyl)amino)quinoline-3,8-dicarbonitrile] | – | – | EC50 (TNFα; [3]): 30 nM; IC50 (Human Cot; [4]): 3 nM
Cc1nc(F)ccc1[C@@H](Nc1cc(Cl)c2ncc(C#N)c(NC3[C@H]4CCC[C@H]34)c2c1)c1cn(C2(C(F)(F)F)CC2)nn1 (stereo partly drawn) [Example 607, 4-(((lR,5S)-bicyclo[3.1.0]hexan-6-yl)amino)-8-chloro-6-(((S)-(6-fluoro-2-methylpyridin-3-yl)(1-(1-(trifluoromethyl)cyclopropyl)-1H-1,2,3-triazol-4-yl)methyl)amino)quinoline-3-carbonitrile] | – | – | EC50 (TNFα; [5]): 225 nM; IC50 (Human Cot; [6]): 21 nM
Cc1nc(F)ccc1[C@H](Nc1cc(Cl)c2ncc(C#N)c(NCC(C)(C)C)c2c1)c1cn(C23CC(C2)C3)nn1 [Example 646, (S)-6-(((1-(bicyclo[1.1.1]pentan-1-yl)-1H-1,2,3-triazol-4-yl)(6-fluoro-2-methylpyridin-3-yl)methyl)amino)-8-chloro-4-(neopentylamino)quinoline-3-carbonitrile] | 40 nM | 3 nM | –
Cc1nc(F)ccc1[C@H](Nc1cc(Cl)c2ncc(C#N)c(NCC(C)(C)C(F)(F)F)c2c1)c1nnn(C23CC(C2)C3)c1F [Example 956, (S)-6-(((1-(bicyclo[1.1.1]pentan-1-yl)-5-fluoro-1H-1,2,3-triazol-4-yl)(6-fluoro-2-methylpyridin-3-yl)methyl)amino)-8-chloro-4-((3,3,3-trifluoro-2,2-dimethylpropyl)amino)quinoline-3-carbonitrile] | – | – | EC50 (TNFα; [3]): 44 nM; IC50 (Human Cot; [4]): 7 nM
CC(C)(C)CNc1c(C#N)cnc2c(C#N)cc(N[C@H](c3cn(C4(C#N)CC4)nn3)c3cccc4ncsc34)cc12 [Example 67, (S)-6-((benzo[d]thiazol-7-yl(1-(1-cyanocyclopropyl)-1H-1,2,3-triazol-4-yl)methyl)amino)-4-(neopentylamino)quinoline-3,8-dicarbonitrile] | 32 nM | 1 nM | –
Cn1nccc1[C@H](Nc1cc(Cl)c2ncc(C#N)c(Nc3ccc(Cl)c(Cl)c3F)c2c1)c1c[nH]nn1 [Example 216, (S)-8-chloro-4-((3,4-dichloro-2-fluorophenyl)amino)-6-(((1-methyl-1H-pyrazol-5-yl)(1H-1,2,3-triazol-4-yl)methyl)amino)quinoline-3-carbonitrile] | 1190 nM | 38 nM | –
N#CCC[C@@H](Nc1c(C#N)cnc2c(Cl)cc(N[C@H](c3cn(C4CC4)nn3)c3cccc4c3CNC4)cc12)c1ccccc1 [Example 68, 8-chloro-4-(((R)-3-cyano-1-phenyl-propyl)amino)-6-(((S)-(1-cyclopropyl-1H-1,2,3-triazol-4-yl)(isoindolin-4-yl)methyl)amino)quinoline-3-carbonitrile] | 51 nM | 1 nM | –
N#Cc1cnc2c(Cl)cc(N[C@@H](c3cocn3)c3cn(C4CCN(C5COC5)CC4)nn3)cc2c1Nc1ccc(Cl)c(Cl)c1F [Example 242, (S)-8-chloro-4-((3,4-dichloro-2-fluorophenyl)amino)-6-((o)(azol-4-yl(1-(1-(oxetan-3-yl)piperidin-4-yl)-1H-1,2,3-triazol-4-yl)methyl)amino)quinoline-3-carbonitrile] | – | – | EC50 (TNFα; [5]): 5800 nM; IC50 (Human Cot; [6]): 143 nM
Cc1nc(F)ccc1[C@H](Nc1cc(C#N)c2ncc(C#N)c(NCC34CC(C3)C4)c2c1)c1cn(C2(C(F)(F)F)CC2)nn1 [Example 848, (S)-4-((bicyclo[1.1.1]pentan-1-ylmethyl)amino)-6-(((6-fluoro-2-methylpyridin-3-yl)(1-(1-(trifluoromethyl)cyclopropyl)-1H-1,2,3-triazol-4-yl)methyl)amino)quinoline-3,8-dicarbonitrile] | – | – | EC50 (TNFα; [3]): 247 nM; IC50 (Human Cot; [4]): 31 nM
CC(C)(CNc1c(C#N)cnc2c(Cl)cc(N[C@H](c3cn(C4(C(F)F)CC4)nn3)c3cccc4ncccc34)cc12)C(F)(F)F [Example 940, (S)-8-chloro-6-(((1-(1-(difluoromethyl)cyclopropyl)-1H-1,2,3-triazol-4-yl)(quinolin-5-yl)methyl)amino)-4-((3,3,3-trifluoro-2,2-dimethylpropyl)amino)quinoline-3-carbonitrile] | – | – | EC50 (TNFα; [3]): 86 nM; IC50 (Human Cot; [4]): 7 nM
CC(C)(CNc1c(C#N)cnc2c(C#N)cc(N[C@H](c3cn(C4(C(F)F)CC4)nn3)c3cccc4ncccc34)cc12)C(F)(F)F [Example 894] | – | – | EC50 (TNFα; read-out: EC50 TNF, LPS-stimulated human monocytes, TNFα TR-FRET): 54 nM; IC50 (Human Cot; read-out: IC50 HTRF, Cot HTRF (TR-FRET KinEASE) biochemical assay, 400 μM ATP): 3 nM
CC(C)(CNc1c(C#N)cnc2c(Cl)cc(N[C@H](c3cn(C45CC(C4)C5)nn3)c3ccc(F)c4ncccc34)cc12)C(F)(F)F [Example 917, (S)-6-(((1-(bicyclo[1.1.1]pentan-1-yl)-1H-1,2,3-triazol-4-yl)(8-fluoroquinolin-5-yl)methyl)amino)-8-chloro-4-((3,3,3-trifluoro-2,2-dimethylpropyl)amino)quinoline-3-carbonitrile] | – | – | EC50 (TNFα; [3]): 31 nM; IC50 (Human Cot; [4]): 3 nM
N#Cc1cnc2c(Cl)cc(N[C@H](c3cn(C4COC4)nn3)c3cccnc3Cl)cc2c1Nc1ccc(F)c(Cl)c1 [Example 319, (S)-8-chloro-4-((3-chloro-4-fluorophenyl)amino)-6-(((2-chloropyridin-3-yl)(1-(oxetan-3-yl)-1H-1,2,3-triazol-4-yl)methyl)amino)-quinoline-3-carbonitrile] | 165 nM | 5 nM | –
Cn1ccc2c([C@H](Nc3cc(Cl)c4ncc(C#N)c(NCC5(C(F)(F)F)CCC5)c4c3)c3cn(C4(C(F)F)CC4)nn3)cccc2c1=O [Example 730, (S)-8-chloro-6-(((1-(1-(difluoromethyl)cyclopropyl)-1H-1,2,3-triazol-4-yl)(2-methyl-1-oxo-1,2-dihydroisoquinolin-5-yl)methyl)amino)-4-(((1-(trifluoromethyl)cyclobutyl)methyl)-amino)quinoline-3-carbonitrile] | 89 nM | 10 nM | –
N#Cc1cnc2c(Cl)cc(N[C@H](c3c[nH]nn3)c3csc4c3CCN(C3COC3)C4)cc2c1Nc1cccc(Cl)c1F [Example 246, (S)-8-chloro-4-((3-chloro-2-fluorophenyl)amino)-6-(((6-(oxetan-3-yl)-4,5,6,7-tetrahydrothieno[2,3-c]pyridin-3-yl)(1H-1,2,3-triazol-4-yl)methyl)amino)quinoline-3-carbonitrile] | 652 nM | 6 nM | –
